Measurements from patent US9278982B2, “Targeting human thymidylate kinase induces DNA repair toxicity in malignant tumor cells” (NATIONAL YANG-MING UNIVERSITY, priority 2010, dated 2016).
“Also recorded” adds a separate entry of the source.

How the values were obtained:
panel of cell lines = assay: Doxorubicin sensitization, MTS viability assay, summary over the panel of cell lines; type: cell-based, human; settings: all these cell lines; 72 h pre-treatment
Protocol: (§1) FIG. 16. In vitro and in vivo effect of YMU1 on doxorubicin sensitization. (A) A panel of cell lines were pre-treated with vehicle, YMU1 (compound 21), D6 (ethyl 4-(2-chloroacetyl)piperazine-1-carboxylate) or D7 (compound 28) for 3 days and were exposed to different concentration of doxorubicin for 4 h. […] The enhancement (fold) of doxorubicin sensitivity in each cell line was calculated. Data represent mean±s.d., n=3; each experiment was quadruplex. Inset indicates the IC50 value of doxorubicin in various cell lines. […] Following overnight culture, cells were refreshed with growth medium. After 14 days of culture, colonies were fixed, stained by crystal violet and counted. (C) HCT-116 p53^−/− cells were subcutaneously implanted in the right flank of Balb/c nude mice (each experimental group n=8). Arrow indicated the time of stopping drug treatment. The tumor volume was estimated as described in Methods of the Invention section. (D) After 2 weeks recovered from treatment, mice were sacrificed for tumor weight measurement. Data represent mean±s.e.m; **, P<0.01 by a two-tailed Student's t-test. (E) Ki 67 proliferation marker staining of tumor shown in left panel. Scale bar, 50 μm. (F) Model of doxorubicin sensitization by YMU1 in malignant cancer cells. Both R2/R1 and TMPK are recruited to the site of doxorubicin-induced double-strand breaks, where dATP, dGTP, dCTP, dTTP and dUTP are site-specific synthesized. Inhibition of TMPK decreases dTTP formation at DNA damage sites, causing futile DNA repair due to dUTP incorporation.
(§2) Next, various human cancer cell lines were treated with YMU1, D6 or D7 for 72 h to test the potential of TMPK inhibitor in doxorubicin sensitization. After exposure to different concentration of doxorubicin for 4 h, cells were refreshed for viability analysis after 2 days and the IC50 value for doxorubicin in each of the cell lines was determined (FIG. 16A and Table 2).
The ability of YMU1 to sensitize non-tumorigenic mammary cycling H184B5F5/M10, MCF10A, primary human mammary epithelial (HMEC) and primary renal epithelial (HREC) cells and IMR-90 embryonic lung fibroblasts to doxorubicin was much weaker.
(§3) Cells plated into a 96-well plate (10^3 cells/well) were treated and cell viability was measured by MTS assay (Promega) (Cory et al., 1991). An annexin V-fluorescein isothiocyanate (FITC) apoptosis kit (Calbiochem) was used to detect apoptosis. The cell cycle analysis was performed by staining cells with propidium iodide (PI) for fluorescence-activated cell sorter (FACS) analysis with CellQuest software.

TMPK [1] = target: T1, TMPK (Homo sapiens, UniProt P23919); assay: Luciferase-coupled TMPK assay; type: biochemical; design: GST (N, cleaved yes); made in house; host or cells: E. coli JM109 (pGEX-2T-hTMPK); settings: purified hTMPK protein (0.5 μg), 10 min preincubation
T1 sequence (P23919 1-212): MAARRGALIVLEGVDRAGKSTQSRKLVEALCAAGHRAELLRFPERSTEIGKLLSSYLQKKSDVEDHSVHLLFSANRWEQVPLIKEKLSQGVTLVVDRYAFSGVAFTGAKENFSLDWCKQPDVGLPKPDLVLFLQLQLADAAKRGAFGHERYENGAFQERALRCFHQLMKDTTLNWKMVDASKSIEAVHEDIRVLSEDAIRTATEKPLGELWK
Protocol: FIG. 12. Identification of a novel hTMPK inhibitor. (A) A screen of TMPK inhibitor by luciferase-coupled assay. (B) The chemical structures of YMU1 (compound 21) and related molecules. (C) Effect of YMU1 and derivative compounds on hTMPK inhibition using purified hTMPK protein (0.5 μg) with 10 min preincubation prior to reaction using luciferase-coupled TMPK analysis. (D) Effect of YMU1 on activity of purified TMPK (0.5 μg) and GST-hTK1 protein (5 μg) with 10 min preincubation prior to reaction. Data represent mean±s.d. (n=4) (E) Molecular models of the TMPK-YMU1 complex. Left panel: TMPK/ATP/Mg+2; right panel: TMPK/YMU1. The TMPK is represented in surface electrostatic potential (upper) and structural ribbon (lower). ATP and YMU1 are shown in green and blue stick, respectively, with colored atom (O, red; S, yellow; P, orange). TMP is shown in white backbone and Mg+2 in purple. Arrow indicates the position of Asp15.
Based on the functional requirement of TMPK in DNA repair specifically in tumor cells with elevated level of R2 expression, we searched for inhibitors of hTMPK that might be useful in selectively sensitizing tumor cells to doxorubicin. […] The synthetic procedure and structural elucidation of YMU1 (compound 21) are described in the Methods of the Invention section of the application.
The TMPK reaction was started by adding purified hTMPK in 50 μl of TMPK assay buffer (100 mM Tris-HCl, pH 7.5, 100 mM KCl, 10 mM MgCl2, 50 μM ATP and 100 μM dTMP) in 96 wells plate at 25° C. for 10 min and terminated by adding 200 μl of DTNB (100 μM), followed by transferring 10 μl of reaction solution to a white 96-wellplate containing 90 μl of luciferase assay buffer (50 mM Glycine, 0.5 mM EDTA and 5 mM EDTA, pH 7.0, 0.1 μg of luciferase, 50 μM luciferin and 0.1% BSA). The luminescence was measured with a luminescence counter (Packard).

TMPK [2] = target: T1, TMPK; assay: In vitro TMPK inhibitory activity of TMPK inhibitor derivatives (inhibition yield); type: biochemical; design: GST (N, cleaved yes); made in house; host or cells: E. coli JM109 (pGEX-2T-hTMPK), inferred; settings: n=3 or 6, read-out: inhibition yield, normalized to compound 21 (YMU1) = 100%
Text: Chemical structures of the different TMPK inhibitor derivatives tested for in vitro TMPK inhibitory activity and in vivo doxorubicin sensitization activity (in MDA-MB231 cells) are depicted below.

MDA-MB231 = assay: Doxorubicin sensitization, MTS viability assay; type: cell-based, human; settings: MDA-MB231 cell treatment, compound at 2 μM
Protocol: as §1, §2, §3

SMILES | inhibition at 2 µM (TMPK [2]) | further results
CCOC(=O)N1CCN(C(=O)CI)CC1 [D6, ethyl 4-(2-iodoacetyl)piperazine-1-carboxylate] | – | doxorubicin sensitization effect (panel of cell lines): had no doxorubicin sensitization effect; inhibition against hTMPK (TMPK [1]): Neither D6 (as the piperazine fragment of YMU1) nor D7 (as the O-alkylation isomer of YMU1) showed any inhibition; also recorded: do not inhibit TMPK
Cc1ccc2c(=O)[nH]sc2n1 [compound 3, 6-Methylisothiazolo[5,4-b]pyridin-3(2H)-one] | 76.5% | –
CCOC(=O)N1CCN(C(=O)N2Cc3ccccc3C2=O)CC1 [compound 5, Ethyl 4-(1-oxoisoindoline-2-carbonyl)piperazine-1-carboxylate] | 92.9% | –
COC(=O)Cn1sc2ccccc2c1=O [compound 6, Methyl 2-(3-oxobenzo[d]isothiazol-2(3H)-yl)acetate] | 96% | –
O=C(O)Cn1sc2ccccc2c1=O [compound 8, 2-(3-oxobenzo[d]isothiazol-2(3H)-yl)acetic acid] | 29.1% | –
CCOC(=O)N1CCN(C(=O)Cn2sc3ccccc3c2=O)CC1 [compound 11, Ethyl 4-(2-(3-oxobenzo[d]isothiazol-2(3H)-yl)acetyl)piperazine-1-carboxylate] | – | inhibition (TMPK [2]): 100%
CC(C)(C)OC(=O)N1CCN(C(=O)Cn2sc3ccccc3c2=O)CC1 [compound 12, Tert-butyl 4-(2-(3-oxobenzo[d]isothiazol-2(3H)-yl)acetyl)piperazine-1-carboxylate] | 124% | enhancement on doxorubicin sensitization (MDA-MB231): 30 fold
O=C(Cn1sc2ccccc2c1=O)N1CCN(C(=O)OCc2ccccc2)CC1 [compound 13, Benzyl 4-(2-(3-oxobenzo[d]isothiazol-2(3H)-yl)acetyl)piperazine-1-carboxylate] | 127% | –
O=C(Cn1sc2ccccc2c1=O)N1CCN(C(=O)Oc2ccc([N+](=O)[O-])cc2)CC1 [compound 14, 4-Nitrophenyl 4-(2-(3-oxobenzo[d]isothiazol-2(3H)-yl)acetyl)piperazine-1-carboxylate] | 129% | –
C=CCN1CCN(C(=O)Cn2sc3ccccc3c2=O)CC1 [compound 15, 2-(2-(4-Allylpiperazin-1-yl)-2-oxoethyl)benzo[d]isothiazol-3(2H)-one] | 102% | –
O=C(CN1C(=O)c2ccccc2S1(=O)=O)N1CCNCC1 [compound 16, 2-(2-Oxo-2-(piperazin-1-yl)ethyl)benzo[d]isothiazol-3(2H)-one 1,1-dioxide] | 11.8% | –
CC(C)(C)OC(=O)N1CCN(C(=O)CN2C(=O)c3ccccc3S2(=O)=O)CC1 [compound 17, Tert-butyl 4-(2-(3-oxobenzo[d]isothiazol-2(3H)-yl)acetyl)piperazine-1-carboxylate 1,1-dioxide] | 10.1% | –
CC(C)(C)OC(=O)N1CCN(C(=O)CN2C(=O)c3ccccc3C2=O)CC1 [compound 18, Tert-Butyl 4-[2-(1,3-dioxo-1,3-dihydro-isoindol-2-yl)-acetyl]-piperazine-1-carboxylate] | 51.4% | –
CCOC(=O)N1CCN(C(=O)CCCn2sc3ccccc3c2=O)CC1 [compound 23, Ethyl 4-(4-(3-oxobenzo[d]isothiazol-2(3H)-yl)butanoyl)piperazine-1-carboxylate] | 0% | –
O=C(Cn1sc2ccccc2c1=O)N1CCN(C(=O)Cn2sc3ccccc3c2=O)CC1 [compound 24, 2,2′-(2,2′-(piperazine-1,4-diyl)bis(2-oxoethane-2,1-diyl))dibenzo[d]isothiazol-3(2H)-one] | 118% | –

Second part, led by results:

inhibition at 2 µM (TMPK [2]) | SMILES | further results
28% | Cc1cc(C)c2c(=O)[nH]sc2n1 [compound 4, 4,6-Dimethylisothiazolo[5,4-b]pyridin-3(2H)-one] | inhibition against hTMPK (TMPK [1]; listed as D3): weak inhibitory activity; also recorded: do not inhibit TMPK
98.3% | COC(=O)Cn1sc2nc(C)cc(C)c2c1=O [compound 7, Methyl 2-(4,6-dimethyl-3-oxoisothiazolo[5,4-b]pyridin-2(3H)-yl)acetate] | melting point: 89 to 91 °C
47% | Cc1cc(C)c2c(=O)n(CC(=O)O)sc2n1 [compound 9, 2-(4,6-Dimethyl-3-oxoisothiazolo[5,4-b]pyridin-2(3H)-yl)acetic acid] | –
96.8% | O=C(Cn1sc2ccccc2c1=O)N1CCNCC1 [compound 10, 2-(2-Oxo-2-(piperazin-1-yl)ethyl)benzo[d]isothiazol-3(2H)-one] | enhancement on doxorubicin sensitization (MDA-MB231): had no effect; inhibition against hTMPK (TMPK [1]): considerable inhibitory function
100% | Cc1cc(C)c2c(=O)n(CC(=O)N3CCOCC3)sc2n1 [compound 19, 4,6-Dimethyl-2-(2-morpholino-2-oxoethyl)isothiazolo[5,4-b]pyridin-3(2H)-one] | enhancement on doxorubicin sensitization (MDA-MB231): had no effect
99.5% | Cc1cc(C)c2c(=O)n(CC(=O)N3CCNCC3)sc2n1 [compound 20, 4,6-Dimethyl-2-(2-oxo-2-(piperazin-1-yl)ethyl)isothiazolo[5,4-b]pyridin-3(2H)-one] | –
112% | Cc1cc(C)c2c(=O)n(CC(=O)N3CCN(C(=O)OC(C)(C)C)CC3)sc2n1 [compound 22, Tert-butyl 4-(2-(4,6-dimethyl-3-oxoisothiazolo[5,4-b]pyridin-2(3H)-yl)acetyl) piperazine-1-carboxylate] | –
7.8% | COC(=O)COc1nsc2nc(C)cc(C)c12 [compound 25, Methyl 2-(4,6-dimethylisothiazolo[5,4-b]pyridin-3-yloxy)acetate] | –
16.4% | Cc1cc(C)c2c(OCC(=O)O)nsc2n1 [compound 26, 2-(4,6-Dimethylisothiazolo[5,4-b]pyridin-3-yloxy)acetic acid] | –
16% | Cc1cc(C)c2c(OCC(=O)N3CCOCC3)nsc2n1 [compound 27, 2-(4,6-Dimethylisothiazolo[5,4-b]pyridin-3-yloxy)-1-morpholinoethanone] | melting point: 153 to 155 °C
